This note sets out measurements from US9221835B2, “Spirocyclic derivatives as antiparasitic agents” (Zoetis Services LLC, priority 2012, dated 2015).

Holding throughout (type): in vivo
The subject of assay [1] is Flea (Ctenocephalides felis). Description: Flea (Ctenocephalides felis) Membrane Feed Assay-Adult. To be noted: adult fleas fed on treated citrated bovine blood for 24 hours, lowest dose to cause mortality ≧50%, half-log intervals, read-out: Minimum Effective Concentration (MEC). The protocol:
Flea (Ctenocephalides felis) Membrane Feed Assay-Adult
Compounds were dissolved in DMSO and aliquots were added to citrated bovine blood in membrane covered wells warmed to 37° C. Adult fleas were newly emerged (3-7 days) and unfed. Feeding wells containing approximately 10 adult fleas were placed onto the treated blood wells, and the fleas were allowed to feed on the treated blood for 24 hours. […] Each compound was tested at half-log intervals, and endpoint data was recorded as Minimum Effective Concentration in μM. MEC is a subjective visual assessment of organism viability, and is the lowest dose to cause mortality ≧50%.

The subject of assay [2] is Soft Tick (Ornithidorus turicata). In words: Soft Tick (Ornithidorus turicata) Blood Feed Assay. The settings on record: nymph stage ticks fed on treated citrated bovine blood; paralysis and/or death observed at approximately 24, 48 and 72 hours. The method, then:
Soft Tick (Ornithidorus turicata) Blood Feed Assay
Compounds of the present invention were dissolved in dimethylsulfoxide (DMSO) and aliquots added to citrated bovine blood in a membrane covered Petri dish. The Petri dish is placed on a warming tray. Approximately 5 nymph stage ticks are placed onto the membrane, covered, and left to feed. Fed ticks are removed and placed into a Petri dish with sand. […] Endpoint data was recorded as a 100% lethal dose (LD^100) in μg/mL.

Assay [3] concerns Mosquito (Aedes aeqypti) larvae. In words: Mosquito (Aedes aeqypti) Larval Assay. To be noted: first instar larvae, 25° C., 24 hours, lowest dose to inhibit motility ≧50% of untreated controls, half-log intervals, read-out: Minimum Effective Concentration (MEC). The method, then:
Mosquito (Aedes aeqypti) Larval Assay
Compounds were dissolved in DMSO and aliquots were spotted to empty wells. First instar mosquito larvae and maintenance media were added to the wells to obtain between 8 and 15 larvae per well in the appropriate final assay volume. Larvae were incubated in the treated media at 25° C. for 24 hours. Mosquito larvae motility was measured at 24 hours. Each compound was tested at half-log intervals, and endpoint results were recorded as Minimum Effective Concentration (MEC) in μM. MEC is an objective assessment of organism motility, and is the lowest dose to inhibit motility ≧50% of untreated controls.

Take `CS(=O)(=O)CC(=O)N1CC2(C1)OCc1cc(C3=NCC(c4cc(Cl)c(Cl)c(Cl)c4)(C(F)(F)F)C3)ccc12` (centres unmarked) [Example 1, 2-(methylsulfonyl)-1-(5′-(3-(3,4,5-trichlorophenyl)-3-(trifluoromethyl)-3,4-dihydro-2H-pyrrol-5-yl)-3′H-spiro[azetidine-3,1′-isobenzofuran]-1-yl)ethanone]: the minimal effective concentration in assay [1] was determined as 0.3 µM; in assay [3], 0.1 µM. In addition, the “100% lethal dose (LD100)” value in assay [2] turned out to be 0.03 µg/mL.

`CC(C)C(=O)N1CC2(C1)OCc1cc(C3=NCC(c4cc(Cl)cc(Cl)c4)(C(F)(F)F)C3)ccc12` (centres unmarked) [Example 6, 5′-(3-(3,5-dichlorophenyl)-3-(trifluoromethyl)-3,4-dihydro-2H-pyrrol-5-yl]-1-isobutyryl-3′H-spiro[azetidine-3,1′-[2]benzofuran]]: the minimal effective concentration in assay [1] came to 1 µM; in assay [3], 0.1 µM. Besides, in assay [2], the “100% lethal dose (LD100)” value is 0.03 µg/mL.

As for `CS(=O)(=O)CC(=O)N1CC2(C1)OCc1cc(C3=NNC(c4cc(Cl)c(F)c(Cl)c4)(C(F)(F)F)C3)ccc12` (centres unmarked) [Example 13, 1-(5′-(5-(3,5-dichloro-4-fluorophenyl)-5-(trifluoromethyl)-4,5-dihydro-1H-pyrazol-3-yl)-3′H-spiro[azetidine-3,1′-isobenzofuran]-1-yl)-2-(methylsulfonyl)ethanone], the results for the minimal effective concentration in assay [1] and in assay [3] were at least 3 µM and 0.1 µM, respectively. Further, the “100% lethal dose (LD100)” value in assay [2] is 0.03 µg/mL.

`CS(=O)(=O)CC(=O)N1CC2(C1)OCc1cc(N3CCC(c4cc(Cl)c(F)c(Cl)c4)(C(F)(F)F)C3)ccc12` (centres unmarked) [Example 22, 1-(5-(3-(3,5-dichloro-4-fluorophenyl)-3-(trifluoromethyl)pyrrolidin-1-yl)-3′H-spiro[azetidine-3,1′-isobenzofuran]-1-yl)-2-(methylsulfonyl)ethanone]: the minimal effective concentration in assay [1] was at least 3 µM; in assay [3], above 3 µM. The “100% lethal dose (LD100)” value in assay [2] turned out to be 0.03 µg/mL.

On to `CS(=O)(=O)CC(=O)N1CC2(C1)OCc1cc(N3CCC(c4cc(Cl)c(Cl)c(Cl)c4)(C(F)(F)F)C3)ccc12` (centres unmarked) [Example 26, 5′-[3-(3,4,5-trichloro)-3-(trifluoromethyl)pyrrolidin-1-yl]-1-[(methylsulfonyl)acetyl]-3′H-spiro[azetidine-3,1′-[2]benzofuran]], for which the minimal effective concentration was at least 3 µM in assay [1] and above 3 µM in assay [3]. In addition, the “100% lethal dose (LD100)” value in assay [2] was found to be 0.1 µg/mL.

Turning to `CC(C)C(=O)N1CC2(C1)OCc1cc(C3=NOC(c4cc(Cl)c(F)c(Cl)c4)(C(F)(F)F)O3)ccc12` (centres unmarked) [Example 28, 1-(5′-(5-(3,5-dichloro-4-fluorophenyl)-5-(trifluoromethyl)-1,4,2-dioxazol-3-yl)-3′H-spiro[azetidine-3,1′-isobenzofuran]-1-yl)-2-methyl propan-1-one], the minimal effective concentration in assay [1] is at least 3 µM; in assay [3], 0.3 µM. Moreover, the “100% lethal dose (LD100)” value in assay [2] was 0.1 µg/mL.

Turning to `CC(C)C(=O)N1CC2(C1)OCc1cc(C3=NOC(c4cc(Cl)cc(Cl)c4)(C(F)(F)F)O3)ccc12` (centres unmarked) [Example 30, 1-(5-(5-(3,5-dichlorophenyl)-5-(trifluoromethyl)-1,4,2-dioxazol-3-yl)-3′H-spiro[azetidine-3,1′-isobenzofuran]-1-yl)-2-methylpropan-1-one], the minimal effective concentration in assay [1] is at least 3 µM. In addition, the “100% lethal dose (LD100)” value in assay [2] worked out at 0.3 µg/mL.

With `CC(C)C(=O)N1CC2(C1)OCc1cc(C3=NOC(c4cc(Cl)c(Cl)c(Cl)c4)(C(F)(F)F)O3)ccc12` (centres unmarked) [Example 31], the minimal effective concentration in assay [1] is at least 3 µM; in assay [3] it was 0.3 µM. Moreover, in assay [2], the “100% lethal dose (LD100)” value came out at 0.3 µg/mL.
